Consider 22 compounds from patent publication US11312712B2, “Azabenzimidazoles and their use as AMPA receptor modulators” (Janssen Pharmaceutica NV, priority 2015, dated 2022).

In this experiment the target is GluA1o-γ8 (GRIA1o-CACNG8 fusion construct) (Homo sapiens (Human), UniProt P42261+Q8WXS5). The experiment is described as follows: Calcium flux assay (FLIPR), inhibition of TARP γ8 dependent AMPA receptor activity. The class given is cell-based. The following applies: GluA1o-γ8 (GRIA1o-CACNG8 fusion) in HEK293 cells, calcium flux after 15 μM glutamate. Summed up:
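HEK293 cells stably expressing a 1:1 GRIA1o–CACNG8 fusion were loaded with Calcium-5/6 dye plus compound in pH 7.4 HEPES-buffered saline. FLIPR calcium flux after 15 μM glutamate was normalized to untreated and 10 μM CP465022 controls, and a four-parameter logistic fit gave pIC50.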
(A change in cytosolic calcium serves as a functional read-out for many receptors and channels.)

Structures are written as SMILES.

GluA1o-γ8 (GRIA1o-CACNG8 fusion construct), sequence (P42261 other isoform, or with tags, fused parts or gaps): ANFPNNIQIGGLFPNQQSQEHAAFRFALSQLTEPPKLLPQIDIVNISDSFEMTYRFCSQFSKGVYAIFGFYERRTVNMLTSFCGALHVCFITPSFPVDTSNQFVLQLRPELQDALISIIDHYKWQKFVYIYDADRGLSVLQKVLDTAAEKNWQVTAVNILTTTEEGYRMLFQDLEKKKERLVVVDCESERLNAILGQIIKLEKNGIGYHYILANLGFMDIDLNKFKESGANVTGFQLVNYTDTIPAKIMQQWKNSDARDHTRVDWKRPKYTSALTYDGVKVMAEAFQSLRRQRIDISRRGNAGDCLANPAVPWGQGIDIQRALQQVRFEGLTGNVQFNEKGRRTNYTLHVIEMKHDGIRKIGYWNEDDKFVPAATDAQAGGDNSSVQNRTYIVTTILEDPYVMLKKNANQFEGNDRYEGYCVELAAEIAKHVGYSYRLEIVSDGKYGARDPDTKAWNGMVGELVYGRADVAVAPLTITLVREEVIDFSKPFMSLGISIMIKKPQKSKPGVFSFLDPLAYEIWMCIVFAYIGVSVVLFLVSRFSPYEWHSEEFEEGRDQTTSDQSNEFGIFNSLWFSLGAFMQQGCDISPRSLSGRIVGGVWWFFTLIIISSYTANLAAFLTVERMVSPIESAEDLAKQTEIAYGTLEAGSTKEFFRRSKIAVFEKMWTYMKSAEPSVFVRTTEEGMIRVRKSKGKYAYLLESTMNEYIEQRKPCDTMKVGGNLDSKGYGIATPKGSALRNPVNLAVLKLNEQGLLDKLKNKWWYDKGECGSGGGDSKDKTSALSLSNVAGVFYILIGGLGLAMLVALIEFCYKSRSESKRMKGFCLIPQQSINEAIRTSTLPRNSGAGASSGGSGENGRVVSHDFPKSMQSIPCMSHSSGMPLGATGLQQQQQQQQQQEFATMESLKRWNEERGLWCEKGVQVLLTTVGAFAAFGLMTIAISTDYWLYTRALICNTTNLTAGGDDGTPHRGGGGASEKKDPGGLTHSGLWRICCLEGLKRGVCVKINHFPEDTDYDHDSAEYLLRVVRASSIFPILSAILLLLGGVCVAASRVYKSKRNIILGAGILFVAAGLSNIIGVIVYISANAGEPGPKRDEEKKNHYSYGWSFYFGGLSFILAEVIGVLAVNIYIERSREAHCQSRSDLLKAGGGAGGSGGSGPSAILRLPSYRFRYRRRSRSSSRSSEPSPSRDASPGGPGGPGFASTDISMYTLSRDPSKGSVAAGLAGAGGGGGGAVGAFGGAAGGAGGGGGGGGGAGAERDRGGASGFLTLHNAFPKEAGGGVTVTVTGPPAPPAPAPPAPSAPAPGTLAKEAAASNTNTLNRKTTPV

With `Cc1c(Br)c2ccc(C(F)(F)F)nc2n1-c1cnc2c(c1)CC(=O)N2` [Example 395, 5-[3-Bromo-2-methyl-6-(trifluoromethyl)pyrrolo[2,3-b]pyridin-1-yl]-1,3-dihydropyrrolo[2,3-b]pyridin-2-one], the IC50 is 25.1 nM.

As to `CC(C)c1cc2ccc(C(F)(F)F)nc2n1-c1ccc2c(c1)CC(=O)N2` [Example 396, 5-[2-Isopropyl-6-(trifluoromethyl)pyrrolo[2,3-b]pyridin-1-yl]indolin-2-one], the half-maximal inhibitory concentration (IC50) is 0.0126 nM.

Consider `O=C1Cc2cc(-n3c(-c4ccccc4)cc4ccc(C(F)(F)F)nc43)ccc2N1` [Example 397, 5-[2-Phenyl-6-(trifluoromethyl)pyrrolo[2,3-b]pyridin-1-yl]indolin-2-one], for which the half-inhibitory concentration (IC50) was 0.0398 nM.

For the compound `O=C1Cc2cc(-n3c(-c4ccc(F)cc4)cc4ccc(C(F)(F)F)nc43)ccc2N1` [Example 398, 5-[2-(4-Fluorophenyl)-6-(trifluoromethyl)pyrrolo[2,3-b]pyridin-1-yl]indolin-2-one], the concentration for half-maximal inhibition (IC50) was 0.0631 nM.

Take `O=C1Cc2cc(-n3c(C4CC4)cc4ccc(C(F)(F)F)nc43)ccc2N1` [Example 399, 5-[2-Cyclopropyl-6-(trifluoromethyl)pyrrolo[2,3-b]pyridin-1-yl]indolin-2-one]: the IC50 was 0.0251 nM.

Take `Cc1ccc2cc(-c3ccccc3)n(-c3cnc4c(c3)CC(=O)N4)c2n1` [Example 400, 5-(6-Methyl-2-phenyl-pyrrolo[2,3-b]pyridin-1-yl)-1,3-dihydropyrrolo[2,3-b]pyridin-2-one]: the IC50 was 0.251 nM.

Turning to `CC(C)c1cc2ccc(C(F)(F)F)nc2n1-c1cnc2c(c1)CC(=O)N2` [Example 401, 5-[2-Isopropyl-6-(trifluoromethyl)pyrrolo[2,3-b]pyridin-1-yl]-1,3-dihydropyrrolo[2,3-b]pyridin-2-one], the 50% inhibitory concentration (IC50) was 0.0316 nM.

Take `Cc1cc2ccc(C(F)(F)F)nc2n1-c1cnc2c(c1)CC(=O)N2` [Example 402, 5-[2-Methyl-6-(trifluoromethyl)pyrrolo[2,3-b]pyridin-1-yl]-1,3-dihydropyrrolo[2,3-b]pyridin-2-one]: the 50% inhibitory concentration (IC50) is 10 nM.

On to `CCc1cc2cccnc2n1-c1cc(C)c2c(c1)CC(=O)N2` [Example 403, 5-(2-Ethylpyrrolo[2,3-b]pyridin-1-yl)-7-methyl-indolin-2-one], for which the IC50 was 1.26 nM.

For the compound `Cc1ccc2nc(C(C)(F)F)n(-c3cc(Cl)c4[nH]ncc4c3)c2n1` [Example 410, 3-(7-Chloro-1H-indazol-5-yl)-2-(1,1-difluoroethyl)-5-methyl-3H-imidazo[4,5-b]pyridine], the IC50 was 1.26 nM.

As to `FC(F)(F)c1ccc2nc(CC3CC3)n(-c3cc(Cl)c4[nH]ncc4c3)c2n1` [Example 411, 3-(7-Chloro-1H-indazol-5-yl)-2-(cyclopropylmethyl)-5-(trifluoromethyl)-3H-imidazo[4,5-b]pyridine], the IC50 was 0.158 nM.

`CCCc1nc2ccc(C(F)(F)F)nc2n1-c1cc(Cl)c2[nH]ncc2c1` [Example 412, 3-(7-Chloro-1H-indazol-5-yl)-2-propyl-5-(trifluoromethyl)-3H-imidazo[4,5-b]pyridine]: the IC50 is 0.126 nM.

Turning to `COCc1nc2ccc(C(F)(F)F)nc2n1-c1cc(Cl)c2[nH]ncc2c1` [Example 413, 3-(7-Chloro-1H-indazol-5-yl)-2-(methoxymethyl)-5-(trifluoromethyl)-3H-imidazo[4,5-b]pyridine], the IC50 was 0.398 nM.

For the compound `CC(C)Cc1nc2ccc(C(F)(F)F)nc2n1-c1cc(Cl)c2[nH]ncc2c1` [Example 414, 3-(7-Chloro-1H-indazol-5-yl)-2-isobutyl-5-(trifluoromethyl)-3H-imidazo[4,5-b]pyridine], the concentration for half-maximal inhibition (IC50) is 0.126 nM.

`COc1ccc2nc(C(F)(F)F)n(-c3cc(Cl)c4[nH]ncc4c3)c2n1` [Example 415, 3-(7-Chloro-1H-indazol-5-yl)-5-methoxy-2-(trifluoromethyl)-3H-imidazo[4,5-b]pyridine]: the IC50 was 0.0501 nM.

For the compound `FC(F)(F)Cc1nc2ccc(C(F)(F)F)nc2n1-c1cc(Cl)c2[nH]ncc2c1` [Example 416, 3-(7-Chloro-1H-indazol-5-yl)-2-(2,2,2-trifluoroethyl)-5-(trifluoromethyl)-3H-imidazo[4,5-b]pyridine], the IC50 was 0.501 nM.

With `CCC(F)(F)c1nc2ccc(C(F)(F)F)nc2n1-c1cc(C)c2[nH]ncc2c1` [Example 417, 2-(1,1-Difluoropropyl)-3-(7-methyl-1H-indazol-5-yl)-5-(trifluoromethyl)-3H-imidazo[4,5-b]pyridine], the IC50 was 3.16 nM.

For the compound `Cc1cc(-n2c(CCC(F)(F)F)nc3ccc(C(F)(F)F)nc32)cc2cn[nH]c12` [Example 418, 3-(7-Methyl-1H-indazol-5-yl)-5-(trifluoromethyl)-2-(3,3,3-trifluoropropyl)-3H-imidazo[4,5-b]pyridine], the half-inhibitory concentration (IC50) is 3.98 nM.

For `FC(F)(F)c1cnc2c(c1)nc(C(F)(F)F)n2-c1cc(Cl)c2[nH]ncc2c1` [Example 419, 3-(7-Chloro-1H-indazol-5-yl)-2,6-bis(trifluoromethyl)-3H-imidazo[4,5-b]pyridine], the 50% inhibitory concentration (IC50) is 0.631 nM.

For the compound `Cc1cc(-n2c(C(C)C)cc3cc(F)cnc32)cc2c1NC(=O)C2` [Example 420, 5-(5-Fluoro-2-isopropyl-1H-pyrrolo[2,3-b]pyridin-1-yl)-7-methylindolin-2-one], the IC50 was 0.126 nM.

For `Cc1cc(-n2c(C)cc3ccc(C(F)F)nc32)cc2c1NC(=O)C2` [Example 421, 5-(6-(Difluoromethyl)-2-methyl-1H-pyrrolo[2,3-b]pyridin-1-yl)-7-methylindolin-2-one], the concentration for half-maximal inhibition (IC50) was 0.0794 nM.

Turning to `Cc1cc(-n2c(C=O)cc3ccc(C(F)(F)F)nc32)cc2c1NC(=O)C2` [Example 422, 1-(7-Methyl-2-oxoindolin-5-yl)-6-(trifluoromethyl)-1H-pyrrolo[2,3-b]pyridine-2-carbaldehyde], the concentration for half-maximal inhibition (IC50) is 0.316 nM.

What is called IC50 is the concentration at which inhibition is half-maximal.
